Measurements published in US11760784B2, “Compositions comprising PEDF-derived short peptides and uses thereof” (BRIM Biotechnology, Inc., priority 2016, dated 2023).

Tests used:
[1] = test system: goblet cells in the conjunctiva; assay: PAS staining of conjunctival goblet cells in CEC dry eye mice; type: in vivo, C57BL/6 mice; conditions: CEC 14 days, then eye drop for 5 days; vehicle 37±1.1; non-stressed 58±3.1
Description: Reduced mucin production could result from reduced goblet cells. […] Briefly, C57BL6 mice were housed in CEC for 14 days and then treated with PDSP or vehicle for additional 5 days. Non-stressed eyes are included as non-stressed controls (NS).
Dry eye was induced by placing mice in a controlled environment chamber (CEC) as previously described (Barabino et al., 2005). Briefly, mice placed in the CEC were exposed to a relative humidity (RH)<25%, temperature of 20 to 22° C., and airflow of 15 L/min, 12 hours per day. Non-stressed (NS) mice without stress-induced dry eye were kept in a normal environment (RH >50%, no air flow, temperature of 21-23° C.) for the same duration. Corneal fluorescein staining and
After animals were euthanized, eyes were surgically excised, fixed in 10% formalin, paraffin embedded, and cut into 5-μm sections. […] PAS-positive goblet cells in the conjunctiva were measured in five sections from each eye.

[2] = test system: IL-1β mRNA; assay: Ocular IL-1β mRNA by quantitative real-time PCR in CEC dry eye mice; type: in vivo, C57BL6 mice; conditions: CEC 14 days, then topical PDSP for 5 days
Description: Dry eye is associated with abnormalities in the pre-corneal tear film and subsequent inflammatory changes in the entire ocular surface including the adnexa, conjunctiva and cornea. (see, Hessen et al., “Dry eye: An Inflammatory Ocular Disease,” J. Ophthalmic Vis. Res., 2014, 9(2): 240-250). Therefore, the effects of PDSPs in corneal inflammatory responses were next examined. Briefly, C57BL6 mice were housed in CEC for 14 days (Day 0) and then treatment with PDSP or vehicle were performed for additional 5 days (Day 5). Then, mRNA levels for inflammatory factors were evaluated by quantitative real-time PCR.
The total RNA was extracted from cells using TRIzol (Invitrogen) and treated with RNase free DNase I (Qiagen, Santa Clarita, CA) to remove genomic DNA and then purified with an RNA purification kit (Dynabeads; Invitrogen). […] Quantitative real-time PCR was performed in a GeneAmp 7700 sequence detection system (Applied Biosystems, Foster City, CA). […] All determinations were measured in triplicate. The cycle threshold (Ct) values corresponded to the PCR cycle number at which fluorescence emission in real time reaches a threshold above the base-line emission were analyzed using GeneAmp 7700 SDS software. The Ct value of the PCR product of interest and a control mRNA (GAPDH) were then used to calculate relative quantities of mRNA between samples.

[3] = test system: 4-HNE; assay: 4-HNE immunohistochemistry (lipid peroxidation) in cornea and conjunctiva of CEC mice; type: in vivo; conditions: PDSP from beginning of 14 days in CEC
From the text: For this test, mice were housed in CEC for 14 days and the PDSP treatment started at the beginning of housing in CEC. Then, the production of oxidative stress products (e.g., 4-hydroxy-2-nonenal, 4-HNE) was examined. 4-HNE was found throughout animal tissues, and in higher quantities during oxidative stress due to the increase in the lipid peroxidation. 4-HNE contains a reactive aldehyde, which may modify proteins. The 4-HNE-modified proteins may be detected with antibodies specific for the 4-HNE moiety.
Oxidative stress-induced lipid peroxidation was assessed by immunohistochemical detection of 4-hydroxy-2-nonenal (4HNE) in the cornea and conjunctiva. Formalin-fixed, paraffin-embedded eye specimens were deparaffinized in xylene and rehydrated in a graded series of ethanol concentrations. Slides were blocked with 10% goat serum for 60 min and then incubated with primary antibody against 4-HNE (1:100 dilution) (ab46545, Abcam) 4 hours at room temperature. The slides were subsequently incubated with the appropriate peroxidase-labeled goat immunoglobulin (1:500 dilution; Chemicon, Temecula, Calif.) for 20 min and then incubated with chromogen substrate (3,3′-diaminobenzidine) for 2 min before counterstaining with hematoxylin.

[4] = test system: GSH in rabbit corneal epithelial cells; assay: Glutathione (GSH) level (OPA probe) in NaCl-treated corneal epithelial cells; type: cell-based; conditions: 10 μM PDSP, isotonic medium, compared to untreated
Description: We therefore examined the effects of PDSP on the intracellular ROS and GSH levels in NaCl-treated (HOP) rabbit corneal epithelial cells. Briefly, rabbit corneal epithelial cells were pretreated with 10 μM PDSP or a negative control peptide (ConP) for 20 hours, followed by treatment with NaCl to induce hyperosmotic stress. After NaCl treatment for another 24 hours, cells were assessed for ROS using a 2′,7′-dichlorodihydrofluorescein diacetate (H2DCFDA) probe, which is an ROS indicator dye. H2DCFDA can diffuse into cells, where its acetate ester linkages are cleaved by intracellular esterases and be oxidized by ROS, which converts the nonfluorescent dichlorodihydrofluorescein diacetate (H2DCFDA) to highly fluorescent […] (DCF).
Limbal stem cells were isolated from 6-month-old New Zealand white rabbits and continuously cultivated for 14 days by DMEM/F-12 basal medium based cell-suspension culture to achieve corneal-liked epithelial cell differentiation as previously described (Ho et al., 2013). […]
The GSH levels were quantified using a Glutathione Assay Kit (BioVision Research Products, Mountain View, Calif.) according to the manufacturer's recommendations. […] The fluorescence was read at 340 nm for excitation and 420 nm for emission on a SPECTRAmax GEMINI XS fluorescence microplate spectrophotometer (Molecular Devices, Sunnyvale, Calif.).

Question: What does the source list for “PDSP: 29mer, residues 93-121 of human PEDF: SLGAEQRTESIIHRALYYDLISSPDIHGT (SEQ ID NO:4) (listed as Homo sapiens)”?
Answer: conjunctival goblet cell counts (PAS-positive cells) [1]: 46±3.8; repression of ocular IL-1β mRNA expression compared to vehicle-treated group [2]: 2.4 fold; 4-HNE signal in the conjunctiva ([3]; versus vehicle): 4-HNE signal was clearly stronger in vehicle-treated eyes than in eyes subjected to the PDSP treatment; number of cells positively stained for 4-HNE in corneal epithelia ([3]; NS 1.9±0.6, vehicle 20.1±1.4): 5.3±1.0; GSH level without HOP stress (peptide alone) [4]: slight increase
